# According to patent US20240139197A1, “INHIBITION OF KDM5A FOR PROMOTING ANTIGEN PRESENTATION, INCREASING CD8+ T CELL INFILTRATION AND BOOSTING ANTI-TUMOR IMMUNE RESPONSE” (The Wistar Institute of Anatomy and Biology, priority 2022, published 2024):
# Legend:
# [1] = tested on: ID8 cells; experiment: cell viability by colony formation assay, ID8; assay type: cell-based, mouse; conditions: ID8, 10 μM, 8 days
# Method: FIG. 2A-FIG. 2J show KDM5A inhibition suppresses tumor growth in vivo in an immune-competent mouse model of ovarian cancer. (FIG. 2A) Expression of Kdm5a, H3K4me3, and a loading control β-actin in doxycycline-inducible shKdm5a ID8 mouse EOC cells treated with or without 2 μg/mL of doxycycline. (FIG. 2B) ID8 cells were plated into 24 well plates and treated with 2 μg/mL of doxycycline the same day. Cells were incubated for 8 days. Relative cell viability was determined by colony formation assay. (FIG. 2C) Expression of Kdm5a, H3K4me3, and a loading control β-actin in ID8 cells treated with 10uM CPI-455 or vehicle control. (FIG. 2D) ID8 cells were plated into 24 well plates and incubated with 10 μM CPI-455 for 8 days with fresh drug-containing media every 3 days. Relative cell viability was determined by colony formation assay. (FIG. 2E) Ascites produced in C57BL/6 mice injected with doxycycline-inducible shKdm5a ID8 cells treated with control or doxycycline containing food. (FIG. 2F) Quantification of ascites volumes from FIG. 2E. (FIG. 2G) Kaplan-Meier survival curves for the indicated groups. […] (FIG. 21) Quantification of ascites volumes from FIG. 2H. […] Data represent mean±SEM of three biological repeats or 5 mice per group; P-value was calculated by using a two-tailed Student t test except in FIG. 2G and FIG. 2J by log rank tests. […]
# [2] = tested on: H2-K1 on HGS2 cells; experiment: cell surface MHC class I H2-K1 by FACS, HGS2; assay type: cell-based, mouse; conditions: HGS2, in response to IFNγ
# Text: FIG. 8A-FIG. 8K show KDM5A regulates antigen processing and presentation pathway. (FIG. 8A) Validation of Kdm5a knockout and upregulation of H3K4me3 in Kdm5a knockout ID8 cells by immunoblot. β-actin expression was used as a loading control. (FIG. 8B) GSEA KEGG enrichment analysis of differentially expressed genes (DEGs) between control and Kdm5a knockout ID8 cells. NES, normalized enrichment score. (FIG. 8C) Enrichment plot of GSEA for antigen processing and presentation pathway. […] (FIG. 8E) Expression of Kdm5a and a loading control β-actin in inducible Kdm5a knockdown HGS2 cells with or without doxycycline treatment determined by immunoblot. (FIG. 8F) Cell surface expression of H2-K1 in HGS2 cells with or without inducible Kdm5a knockdown stimulated with IFNy was determined by FACS analysis. (FIG. 8G) Quantification of FIG. 8F. (FIG. 8H) Cell surface expression of H2-K1 in HGS2 cells treated with or without CPI455 and stimulated with IFNy was determined by FACS analysis. (FIG. 8I) Quantification of FIG. 8H; (FIG. 8J) Correlation between CD8A and HLA-A or HLA-B expression based on RNA-seq analysis in the TCGA HGSOC dataset. […] Data represent mean +SEM; P values were calculated by using a two-tailed Student t test except in FIG. 8J and FIG. 8K by using Pearson r analysis and FIG. 8B and FIG. 8C by using GSEA. […]
substance,measurement,setting,value
CPI-455,cell viability,[1],did not affect cell viability
same,MHC class I presence on cell surface,[2],increased MHC class I presence on cell surface
